Article PMC7560712, “Analysis of translating mitoribosome reveals functional characteristics of translation in mitochondria of fungi” (Nature Communications, 2020)

How the values were obtained:
[1] = target: T1, mS29 (mitoribosomal small subunit) (Neurospora crassa, UniProt Q7SD06); test: cryo-EM structure; assay type: binding; conditions: co-purified endogenous nucleotide in P-loop pocket; assigned as ATP rather than GDP from density and chemical environment (Leu150); local resolution 2.77 A
T1 construct: gene rsm23; native mS29 within the mtSSU of intact mitoribosomes purified from mycelia mitochondria; His-tag is on Oxa1 only
T1 sequence (Q7SD06 1-469): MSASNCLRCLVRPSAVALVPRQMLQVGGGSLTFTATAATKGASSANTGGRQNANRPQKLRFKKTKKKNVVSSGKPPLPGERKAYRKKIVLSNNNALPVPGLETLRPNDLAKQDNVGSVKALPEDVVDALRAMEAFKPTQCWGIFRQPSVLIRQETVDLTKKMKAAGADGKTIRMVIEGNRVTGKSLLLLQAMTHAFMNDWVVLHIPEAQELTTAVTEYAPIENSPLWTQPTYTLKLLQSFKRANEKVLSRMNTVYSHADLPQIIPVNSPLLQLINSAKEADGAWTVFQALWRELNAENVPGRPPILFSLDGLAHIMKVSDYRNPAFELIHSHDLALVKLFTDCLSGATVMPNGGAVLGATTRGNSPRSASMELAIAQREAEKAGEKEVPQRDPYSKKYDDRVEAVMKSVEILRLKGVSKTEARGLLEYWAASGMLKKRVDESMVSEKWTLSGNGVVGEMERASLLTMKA

[2] = target: T2, pocket formed by mL40, uL5m, and rRNA H84-ES3 (central protuberance of mtLSU) (Neurospora crassa, UniProt Q1K6P0+V5IQE0); test: cryo-EM structure; assay type: binding; conditions: co-purified endogenous ligand; assignment 'most likely'; Arg295 of mL40 stacks on nicotinamide; rRNA part of site; oxidation state not stated
T2 construct: gene mrpl28; native proteins within the mtLSU of intact mitoribosomes; site also formed by 23S rRNA (H84-ES3, A2755, U2759)
T2 sequence (Q1K6P0 whole entry): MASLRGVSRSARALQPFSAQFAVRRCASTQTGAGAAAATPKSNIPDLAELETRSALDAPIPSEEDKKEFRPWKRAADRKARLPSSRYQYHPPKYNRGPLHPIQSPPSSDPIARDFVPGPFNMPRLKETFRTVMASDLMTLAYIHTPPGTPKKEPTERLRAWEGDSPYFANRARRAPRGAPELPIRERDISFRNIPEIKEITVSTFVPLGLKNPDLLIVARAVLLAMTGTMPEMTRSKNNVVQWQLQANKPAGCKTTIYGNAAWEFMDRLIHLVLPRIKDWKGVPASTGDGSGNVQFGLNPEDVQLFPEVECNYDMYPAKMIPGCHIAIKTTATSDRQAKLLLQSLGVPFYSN
T2 sequence (V5IQE0 whole entry): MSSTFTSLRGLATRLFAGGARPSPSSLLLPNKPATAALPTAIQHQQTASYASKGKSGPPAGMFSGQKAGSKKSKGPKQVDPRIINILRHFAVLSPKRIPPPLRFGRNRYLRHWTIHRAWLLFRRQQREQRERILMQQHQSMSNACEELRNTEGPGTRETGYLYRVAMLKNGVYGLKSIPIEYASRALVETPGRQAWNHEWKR

| SMILES | cryo-EM structure [1] | cryo-EM structure [2] |
| --- | --- | --- |
| Nc1ncnc2c1ncn2[C@@H]1O[C@H](COP(=O)(O)OP(=O)(O)OP(=O)(O)O)[C@@H](O)[C@H]1O [ATP] | the correct assignment for the nucleotide is adenosine triphosphate (ATP) | – |
| NC(=O)c1ccc[n+]([C@@H]2O[C@H](COP(=O)([O-])OP(=O)(O)OC[C@H]3O[C@@H](n4cnc5c(N)ncnc54)[C@H](O)[C@@H]3O)[C@@H](O)[C@H]2O)c1 [NAD] | – | we conclude that it is most likely to be NAD |
